Source: ChEMBL document CHEMBL1201861, “Genomics of Drug Sensitity in Cancer screening data, Wellcome Trust Sanger Institute”

Experiments:
NCI-H596 = assay: cells; assay type: functional, cell-based, Homo sapiens; settings: Homo sapiens, NCI-H596;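 also: growth inhibition of NCI-H596 cells, read out with a cell viability assay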
Description: SANGER: Inhibition of human NCI-H596 cell growth in a cell viability assay.

G-361 = assay: cells; assay type: functional, cell-based, Homo sapiens; settings: Homo sapiens, G-361
IST-SL2 = assay: cells; assay type: functional, cell-based, Homo sapiens; settings: Homo sapiens, IST-SL2;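 also: growth inhibition of human IST-SL2 cells, read out by a cell viability assay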
Description: SANGER: Inhibition of human IST-SL2 cell growth in a cell viability assay.

HOS = assay: cells; assay type: functional, cell-based, Homo sapiens; settings: Homo sapiens, HOS;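 also: growth inhibition of human HOS cells, read out with a cell viability assay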
Description: SANGER: Inhibition of human HOS cell growth in a cell viability assay.

SNU-16 = assay: cells; assay type: functional, cell-based, Homo sapiens; settings: Homo sapiens, SNU-16;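 also: growth inhibition of human SNU-16 cells, determined with a cell viability readout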
Description: SANGER: Inhibition of human NCI-SNU-16 cell growth in a cell viability assay.

NCI-H2170 = assay: cells; assay type: functional, cell-based, Homo sapiens; settings: Homo sapiens, NCI-H2170;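 also: cell viability assay measuring growth inhibition of human NCI-H2170 cancer cells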
Description: SANGER: Inhibition of human NCI-H2170 cell growth in a cell viability assay.

HCC70 = assay: cells; assay type: functional, cell-based, Homo sapiens; settings: Homo sapiens, HCC70;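 also: cell viability assay measuring how strongly the compound suppresses proliferation of HCC70 cells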
Description: SANGER: Inhibition of human HCC70 cell growth in a cell viability assay.

KYSE-450 = assay: cells; assay type: functional, cell-based, Homo sapiens; settings: Homo sapiens, KYSE-450;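 also: cell growth inhibition measured by a viability assay in human KYSE-450 cells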
Description: SANGER: Inhibition of human KYSE-450 cell growth in a cell viability assay.

SNU-C1 = assay: cells; assay type: functional, cell-based, Homo sapiens; settings: Homo sapiens, SNU-C1;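 also: growth inhibition of SNU-C1 human cells, read out by a cell viability assay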
Description: SANGER: Inhibition of human SNU-C1 cell growth in a cell viability assay.

TUR = assay: cells; assay type: functional, cell-based, Homo sapiens; settings: Homo sapiens, TUR;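 also: growth inhibition of human TUR cells, read out with a cell viability assay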
Description: SANGER: Inhibition of human TUR cell growth in a cell viability assay.

DMS-273 = assay: cells; assay type: functional, cell-based, Homo sapiens; settings: Homo sapiens, DMS-273
Description: SANGER: Inhibition of human DMS-273 cell growth in a cell viability assay.

NB1 = assay: cells; assay type: functional, cell-based, Homo sapiens; settings: Homo sapiens, NB1;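 also: reduction of NB1 cell proliferation, read out with a viability assay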
Description: SANGER: Inhibition of human NB1 cell growth in a cell viability assay.

U-698-M = assay: cells; assay type: functional, cell-based, Homo sapiens; settings: Homo sapiens, U-698-M
Description: SANGER: Inhibition of human U-698-M cell growth in a cell viability assay.

HEC-1 = assay: cells; assay type: functional, cell-based, Homo sapiens; settings: Homo sapiens, HEC-1;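 also: growth inhibition of the cell line, read out with a cell viability assay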
Description: SANGER: Inhibition of human HEC-1 cell growth in a cell viability assay.

CESS = assay: SANGER: Inhibition of human CESS cell growth in a cell viability assay.; assay type: functional, cell-based; settings: Homo sapiens, CESS
YAPC = assay: cells; assay type: functional, cell-based, Homo sapiens; settings: Homo sapiens, YAPC;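 also: growth inhibition of YAPC cells, measured with a cell viability assay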
Description: SANGER: Inhibition of human YAPC cell growth in a cell viability assay.

NCCIT = assay: SANGER: Inhibition of human NCCIT cell growth in a cell viability assay.; assay type: functional, cell-based; settings: Homo sapiens, NCCIT
COLO-680N = assay: cells; assay type: functional, cell-based, Homo sapiens; settings: Homo sapiens, COLO-680N;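 also: cell viability assay used to measure inhibition of COLO-680N cell growth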
Description: SANGER: Inhibition of human COLO-680N cell growth in a cell viability assay.

MFE-280 = assay: cells; assay type: functional, cell-based, Homo sapiens; settings: Homo sapiens, MFE-280;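 also: growth inhibition of MFE-280 cells, determined with a cell viability readout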
Description: SANGER: Inhibition of human MFE-280 cell growth in a cell viability assay.

CAL-27 = assay: cells; assay type: functional, cell-based, Homo sapiens; settings: Homo sapiens, CAL-27;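 also: Viability-based readout, IC50 reflecting inhibition of CAL-27 cell growth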
Description: SANGER: Inhibition of human CAL-27 cell growth in a cell viability assay.

NCI-H358 = assay: cells; assay type: functional, cell-based, Homo sapiens; settings: Homo sapiens, NCI-H358;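 also: growth inhibition of NCI-H358 human cells, read out with a cell viability assay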
Description: SANGER: Inhibition of human NCI-H358 cell growth in a cell viability assay.

HCC38 = assay: cells; assay type: functional, cell-based, Homo sapiens; settings: Homo sapiens, HCC38;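 also: cell viability assay on the human HCC38 cell line, with IC50 marking the concentration that inhibits cell growth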
Description: SANGER: Inhibition of human HCC38 cell growth in a cell viability assay.

P12-Ichikawa = assay: cells; assay type: functional, cell-based, Homo sapiens; settings: Homo sapiens, P12-Ichikawa
G-402 = assay: cells; assay type: functional, cell-based, Homo sapiens; settings: Homo sapiens, G-402
Description: SANGER: Inhibition of human G-402 cell growth in a cell viability assay.

CHL-1 = assay: cells; assay type: functional, cell-based, Homo sapiens; settings: Homo sapiens, CHL-1;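 also: cell growth inhibition, read out with a cell viability assay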
Description: SANGER: Inhibition of human CHL-1 cell growth in a cell viability assay.

RO82-W-1 = assay: cells; assay type: functional, cell-based, Homo sapiens; settings: Homo sapiens, RO82-W-1;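 also: growth inhibition of human RO82-W-1 cells, measured with a cell viability assay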
Description: SANGER: Inhibition of human RO82-W-1 cell growth in a cell viability assay.

NCI-H1755 = assay: cells; assay type: functional, cell-based, Homo sapiens; settings: Homo sapiens, NCI-H1755;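 also: cell viability readout used to measure growth inhibition of NCI-H1755 cells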
Description: SANGER: Inhibition of human NCI-H1755 cell growth in a cell viability assay.

LCLC-97TM1 = assay: cells; assay type: functional, cell-based, Homo sapiens; settings: Homo sapiens, LCLC-97TM1;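 also: cell viability assay measuring growth inhibition of human LCLC-97TM1 cells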
Description: SANGER: Inhibition of human LCLC-97TM1 cell growth in a cell viability assay.

MDA-MB-453 = assay: cells; assay type: functional, cell-based, Homo sapiens; settings: Homo sapiens, MDA-MB-453
Description: SANGER: Inhibition of human MDA-MB-453 cell growth in a cell viability assay.

FaDu = assay: cells; assay type: functional, cell-based, Homo sapiens; settings: Homo sapiens, FaDu;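 also: cell viability readout of growth inhibition in FaDu cells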
Description: SANGER: Inhibition of human FADU cell growth in a cell viability assay.

DoTc2-4510 = assay: cells; assay type: functional, cell-based, Homo sapiens; settings: Homo sapiens, DoTc2-4510
MDA-MB-231 = assay: cells; assay type: functional, cell-based, Homo sapiens; settings: Homo sapiens, MDA-MB-231
Description: SANGER: Inhibition of human MDA-MB-231 cell growth in a cell viability assay.

MDA-MB-415 = assay: cells; assay type: functional, cell-based, Homo sapiens; settings: Homo sapiens, MDA-MB-415
SCC-4 = assay: cells; assay type: functional, cell-based, Homo sapiens; settings: Homo sapiens, SCC-4;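 also: growth inhibition of human SCC-4 cells, read out as cell viability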
Description: SANGER: Inhibition of human SCC-4 cell growth in a cell viability assay.

THP-1 = assay: cells; assay type: functional, cell-based, Homo sapiens; settings: Homo sapiens, THP-1;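 also: growth inhibition of THP-1 cells, read out via a cell viability assay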
Description: SANGER: Inhibition of human THP-1 cell growth in a cell viability assay.

MC-CAR = assay: cells; assay type: functional, cell-based, Homo sapiens; settings: Homo sapiens, MC-CAR;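 also: growth inhibition of the human MC-CAR cell line, read out by a cell viability assay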
Description: SANGER: Inhibition of human MC-CAR cell growth in a cell viability assay.

COLO-792 = assay: cells; assay type: functional, cell-based, Homo sapiens; settings: Homo sapiens, COLO-792
Description: SANGER: Inhibition of human COLO-792 cell growth in a cell viability assay.

DU-145 = assay: cells; assay type: functional, cell-based, Homo sapiens; settings: Homo sapiens, DU-145
Description: SANGER: Inhibition of human DU-145 cell growth in a cell viability assay.

CAMA-1 = assay: cells; assay type: functional, cell-based, Homo sapiens; settings: Homo sapiens, CAMA-1;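 also: growth inhibition of CAMA-1 cells, read out with a cell viability assay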
Description: SANGER: Inhibition of human CAMA-1 cell growth in a cell viability assay.

NCI-H520 = assay: cells; assay type: functional, cell-based, Homo sapiens; settings: Homo sapiens, NCI-H520;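 also: growth inhibition of NCI-H520 cells, measured by a cell viability assay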
Description: SANGER: Inhibition of human NCI-H520 cell growth in a cell viability assay.

DK-MG = assay: cells; assay type: functional, cell-based, Homo sapiens; settings: Homo sapiens, DK-MG;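 also: growth inhibition of DK-MG cells, read out with a cell viability assay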
Description: SANGER: Inhibition of human DK-MG cell growth in a cell viability assay.

OVCAR-3 = assay: cells; assay type: functional, cell-based, Homo sapiens; settings: Homo sapiens, OVCAR-3;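 also: growth inhibition of human OVCAR-3 cells, determined by a cell viability assay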
Description: SANGER: Inhibition of human OVCAR-3 cell growth in a cell viability assay.

NCI-H661 = assay: cells; assay type: functional, cell-based, Homo sapiens; settings: Homo sapiens, NCI-H661;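 also: cell viability assay read-out, IC50 being the concentration that inhibits growth of the cells by half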
Description: SANGER: Inhibition of human NCI-H661 cell growth in a cell viability assay.

NCI-H889 = assay: cells; assay type: functional, cell-based, Homo sapiens; settings: Homo sapiens, NCI-H889;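 also: cell growth inhibition of the cell line, read out with a viability assay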
Description: SANGER: Inhibition of human NCI-H889 cell growth in a cell viability assay.

EFO-27 = assay: cells; assay type: functional, cell-based, Homo sapiens; settings: Homo sapiens, EFO-27;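 also: growth inhibition of EFO-27 cells, read out with a cell viability assay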
Description: SANGER: Inhibition of human EFO-27 cell growth in a cell viability assay.

A-431 = assay: cells; assay type: functional, cell-based, Homo sapiens; settings: Homo sapiens, A-431;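 also: growth inhibition of A-431 cells, determined with a cell viability read-out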
Description: SANGER: Inhibition of human A431 cell growth in a cell viability assay.

Kasumi 1 = assay: cells; assay type: functional, cell-based, Homo sapiens; settings: Homo sapiens, Kasumi 1;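 also: growth inhibition of human Kasumi-1 cells, read out by a cell viability assay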
Description: SANGER: Inhibition of human KASUMI-1 cell growth in a cell viability assay.

C=C(c1ccc(C(=O)O)cc1)c1cc2c(cc1C)C(C)(C)CCC2(C)C [BEXAROTENE]
IC50 (NCI-H596): > 8000 nM | IC50 (G-361): > 8000 nM | IC50 (IST-SL2): > 8000 nM | IC50 (HOS): > 8000 nM | IC50 (SNU-16): > 8000 nM | IC50 (NCI-H2170): > 8000 nM | IC50 (HCC70): > 8000 nM | IC50 (KYSE-450): > 8000 nM | IC50 (SNU-C1): > 8000 nM | IC50 (TUR): > 8000 nM | IC50 (DMS-273): > 8000 nM | IC50 (NB1): > 8000 nM | IC50 (U-698-M): > 8000 nM | IC50 (HEC-1): > 8000 nM | IC50 (CESS): > 8000 nM | IC50 (YAPC): > 8000 nM | IC50 (NCCIT): > 8000 nM | IC50 (COLO-680N): > 8000 nM | IC50 (MFE-280): > 8000 nM | IC50 (CAL-27): > 8000 nM | IC50 (NCI-H358): > 8000 nM | IC50 (HCC38): > 8000 nM | IC50 (P12-Ichikawa): > 8000 nM | IC50 (G-402): > 8000 nM | IC50 (CHL-1): > 8000 nM | IC50 (RO82-W-1): > 8000 nM | IC50 (NCI-H1755): > 8000 nM | IC50 (LCLC-97TM1): > 8000 nM | IC50 (MDA-MB-453): > 8000 nM | IC50 (FaDu): > 8000 nM | IC50 (DoTc2-4510): > 8000 nM | IC50 (MDA-MB-231): > 8000 nM | IC50 (MDA-MB-415): > 8000 nM | IC50 (SCC-4): > 8000 nM | IC50 (THP-1): > 8000 nM | IC50 (MC-CAR): > 8000 nM | IC50 (COLO-792): > 8000 nM | IC50 (DU-145): > 8000 nM | IC50 (CAMA-1): > 8000 nM | IC50 (NCI-H520): > 8000 nM | IC50 (DK-MG): 51.2 nM | IC50 (OVCAR-3): > 8000 nM | IC50 (NCI-H661): > 8000 nM | IC50 (NCI-H889): > 8000 nM | IC50 (EFO-27): > 8000 nM | IC50 (A-431): > 8000 nM

COc1cccc2c1C(=O)c1c(O)c3c(c(O)c1C2=O)C[C@@](O)(C(=O)CO)C[C@@H]3O[C@H]1C[C@H](N)[C@H](O)[C@H](C)O1 [DOXORUBICIN]
IC50 (NCI-H596): 108 nM | IC50 (G-361): 27.9 nM | IC50 (IST-SL2): 73.8 nM | IC50 (HOS): 45.3 nM | IC50 (SNU-16): > 1020 nM | IC50 (NCI-H2170): 110 nM | IC50 (HCC70): > 1020 nM | IC50 (KYSE-450): 44.7 nM | IC50 (SNU-C1): > 1020 nM | IC50 (TUR): 76.3 nM | IC50 (DMS-273): 78.9 nM | IC50 (NB1): 46 nM | IC50 (U-698-M): 139 nM | IC50 (HEC-1): 183 nM | IC50 (CESS): 39.4 nM | IC50 (YAPC): > 1020 nM | IC50 (NCCIT): 20.1 nM | IC50 (COLO-680N): 33.9 nM | IC50 (MFE-280): > 1020 nM | IC50 (CAL-27): 32.6 nM | IC50 (NCI-H358): 41.1 nM | IC50 (HCC38): 42.5 nM | IC50 (P12-Ichikawa): 49.3 nM | IC50 (G-402): 99.1 nM | IC50 (CHL-1): 37.7 nM | IC50 (RO82-W-1): > 1020 nM | IC50 (NCI-H1755): 874 nM | IC50 (LCLC-97TM1): 11.8 nM | IC50 (MDA-MB-453): > 1020 nM | IC50 (FaDu): 102 nM | IC50 (DoTc2-4510): 36.2 nM | IC50 (MDA-MB-231): > 1020 nM | IC50 (MDA-MB-415): > 1020 nM | IC50 (SCC-4): 184 nM | IC50 (THP-1): 989 nM | IC50 (MC-CAR): 48.7 nM | IC50 (COLO-792): > 1020 nM | IC50 (DU-145): 73.7 nM | IC50 (CAMA-1): 159 nM | IC50 (NCI-H520): 267 nM | IC50 (DK-MG): > 1020 nM | IC50 (OVCAR-3): 470 nM | IC50 (NCI-H661): 49 nM | IC50 (NCI-H889): > 1020 nM | IC50 (EFO-27): 97.4 nM | IC50 (A-431): 20.9 nM

N[C@@H](CSC(c1ccccc1)(c1ccccc1)c1ccccc1)C(=O)O [S-TRITYL-L-CYSTEINE]
IC50 (IST-SL2): 2260 nM | IC50 (SNU-16): > 5120 nM | IC50 (SNU-C1): > 5120 nM | IC50 (TUR): > 5120 nM | IC50 (NB1): 2940 nM | IC50 (U-698-M): > 5120 nM | IC50 (CESS): 606 nM | IC50 (NCCIT): 2390 nM | IC50 (THP-1): > 5120 nM | IC50 (MC-CAR): 1210 nM | IC50 (Kasumi 1): > 5120 nM | IC50 (NCI-H889): > 5120 nM
